The target of test [1] is T1, human thyroid hormone receptors TRβ1 (Homo sapiens, UniProt P10828).
T1 construct: made in house; host or cells: Sf9 insect cells (baculovirus)
T1 sequence (P10828 1-461): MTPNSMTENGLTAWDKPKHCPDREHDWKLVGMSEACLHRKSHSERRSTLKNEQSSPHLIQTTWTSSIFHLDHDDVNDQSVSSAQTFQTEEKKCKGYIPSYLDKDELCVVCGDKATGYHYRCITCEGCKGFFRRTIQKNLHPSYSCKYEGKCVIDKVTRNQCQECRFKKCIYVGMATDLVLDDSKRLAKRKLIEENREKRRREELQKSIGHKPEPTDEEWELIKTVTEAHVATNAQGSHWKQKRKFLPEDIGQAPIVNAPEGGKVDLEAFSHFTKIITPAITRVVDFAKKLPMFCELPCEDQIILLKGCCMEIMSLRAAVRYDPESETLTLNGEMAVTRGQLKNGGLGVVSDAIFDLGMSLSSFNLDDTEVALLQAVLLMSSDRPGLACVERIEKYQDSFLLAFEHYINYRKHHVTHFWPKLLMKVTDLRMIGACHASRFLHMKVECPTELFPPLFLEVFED
T1 sequence (P19793 1-462 partner): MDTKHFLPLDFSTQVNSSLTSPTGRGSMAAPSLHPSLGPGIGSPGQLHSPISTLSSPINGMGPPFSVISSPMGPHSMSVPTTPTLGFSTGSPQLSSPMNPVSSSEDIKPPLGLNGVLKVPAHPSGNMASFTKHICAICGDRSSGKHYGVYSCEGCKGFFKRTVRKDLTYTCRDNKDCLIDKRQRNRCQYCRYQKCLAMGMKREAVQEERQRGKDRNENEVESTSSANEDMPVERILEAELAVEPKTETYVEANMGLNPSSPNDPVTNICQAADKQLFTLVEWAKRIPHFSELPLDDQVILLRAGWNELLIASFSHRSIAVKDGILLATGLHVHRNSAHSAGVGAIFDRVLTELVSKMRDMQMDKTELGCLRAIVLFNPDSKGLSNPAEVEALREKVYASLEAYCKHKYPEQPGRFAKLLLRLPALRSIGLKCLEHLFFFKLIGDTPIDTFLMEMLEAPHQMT
Description: Receptor binding to TRβ1 (gel filtration and scintillation proximity assay, labeled T3). As to the method:
(§1) Methods: Baculoviruses expressing TRα1, TRβ1 and RXRα were generated using cDNA and other reagents from Invitrogen (Carlsbad, Calif.). To produce TR/RXR heterodimer proteins, the sf9 insect cells were first grown to a density of 1-5×10^5 cells/mL. […] and RXRα baculovirus stocks were added to the cell culture with a ratio of 1 to 1 (multiplicity of infection=10). The cells were harvested three days after the infection.
(§2) Binding of compounds to either the TRα1 or TRβ1 were also performed by means of scintillation proximity assays (SPA). The SPA assay, a common method used for the quantitation of receptor-ligand equilibria, makes use of special beads coated with a scintillant and a capture molecule, copper, which binds to the histidine-tagged α or β receptor.
In general terms: SEC sorts molecules by how far they enter the pores of the column.

Test [2] has as its target T2, human thyroid hormone receptors TRα1 (Homo sapiens, UniProt P10827).
T2 construct: made in house; host or cells: Sf9 insect cells (baculovirus)
T2 sequence (P10827 1-410 isoform P10827-2): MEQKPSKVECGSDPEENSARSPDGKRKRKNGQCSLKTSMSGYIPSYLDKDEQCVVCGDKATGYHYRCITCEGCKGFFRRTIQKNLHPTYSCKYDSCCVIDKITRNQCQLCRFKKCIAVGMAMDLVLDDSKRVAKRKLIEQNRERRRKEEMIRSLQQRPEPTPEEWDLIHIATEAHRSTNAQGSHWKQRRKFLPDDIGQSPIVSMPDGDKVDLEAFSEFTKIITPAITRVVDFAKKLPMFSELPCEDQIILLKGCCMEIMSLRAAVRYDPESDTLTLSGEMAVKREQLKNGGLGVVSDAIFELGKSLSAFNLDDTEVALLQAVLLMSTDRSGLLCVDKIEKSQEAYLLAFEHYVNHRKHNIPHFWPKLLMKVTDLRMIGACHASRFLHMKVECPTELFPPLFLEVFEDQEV
T2 sequence (P19793 1-462 partner): T1 sequence (P19793 1-462 partner)
Put plainly: Receptor binding to TRα1 (gel filtration and scintillation proximity assay, labeled T3). The procedure: as §1, §2

Like-named read-outs stand apart in the source and are kept apart here.

By Ki is commonly meant the equilibrium dissociation constant of an inhibitor or competing ligand from its target. In the case of `Cc1cc(NC(=O)P(=O)(O)O)cc(C)c1Oc1ccc(O)c(C(C)C)c1` [Compound 1, N-[3,5-dimethyl-4-(3′-iso-propyl-4′-hydroxyphenoxy)]carbamoylphosphonic acid], the Ki in test [1] (read-out: Ki TRβ) turned out to be 36.1 nM; in test [2] (read-out: Ki TRα), 285 nM.
On the same counts, the results for `NC(Cc1cc(I)c(Oc2ccc(O)c(I)c2)c(I)c1)P(=O)(O)O` (stereo not drawn) [Compound 2, 1-amino-2-[3,5-diiodo-4-(4′-hydroxy-3′-iodophenoxy)phenyl]ethylphosphonic acid] are 271 nM and 1420 nM.
Regarding `Cc1cc(OC[P@]2(=O)OCC[C@@H](c3ccc(Cl)cc3)O2)cc(C)c1Cc1ccc(O)c(C(C)C)c1` [Compound 13-6-trans, 2-[(3,5-dimethyl-4-(4′-hydroxy-3′-iso-propylbenzyl)phenoxy)methyl]-4-(4-chlorophenyl)-2-oxo-2λ^5-[1,3,2]-dioxaphosphonane], the inhibition constant Ki in test [1] (SPA data, read-out: Ki TRβ) came out at 1570 nM; in test [2] (SPA data, read-out: Ki TRα), 1530 nM.
On the same counts, the results for `Cc1cc(OCP(=O)(O)O)cc(C)c1Cc1ccc(O)c(C(=O)NC(C)C)c1` [Compound 36, [3,5-dimethyl-4-(4′-hydroxy-3′-iso-propylcarbamoylbenzyl)-phenoxy]methylphosphonic acid] are 106 nM and > 2000 nM.
On the same counts, the results for `Cc1cc(OC[P@]2(=O)OCC[C@@H](c3cc(Cl)cc(Cl)c3)O2)cc(C)c1Cc1ccc(O)c(C(C)C)c1` [Compound 13-7-trans] are 3800 nM and 1550 nM.
For `O=P(O)(O)CCc1cc(I)c(Oc2ccc(O)c(I)c2)c(I)c1` [Compound 3, 2-[3,5-diiodo-4-(4′-hydroxy-3′-iodophenoxy)phenyl]ethylphosphonic acid], in that order: 5.42 nM and 46 nM.
Regarding `Cc1cc(OC[P@]2(=O)OCC[C@@H](c3cccnc3)O2)cc(C)c1Cc1ccc(O)c(C(C)C)c1` [Compound 13-4-trans, 2-[(3,5-dimethyl-4-(4′-hydroxy-3′-iso-propylbenzyl)phenoxy)methyl]-4-(pyrid-3-yl)-2-oxo-2λ^5-[1,3,2]-dioxaphosphonane], the Ki in test [1] (SPA data, read-out: Ki TRβ) was found to be 1810 nM; in test [2] (SPA data, read-out: Ki TRα), 2130 nM.
On to `COc1cc(OCP(=O)(O)O)cc(OC)c1Cc1ccc(O)c(C(C)C)c1` [Compound 7-2, [3,5-dimethoxy-4-(4′-hydroxy-3′-iso-propylbenzyl)phenoxy]methylphosphonic acid], for which the inhibition constant Ki in test [1] (read-out: Ki TRβ) was 146 nM; in test [2] (SPA data, read-out: Ki TRα), > 2000 nM.
Take `Cc1cc(OCP(=O)(O)O)cc(C)c1Sc1ccc(O)c(C(C)C)c1` [Compound 43, [3,5-dimethyl-4-S-[(4′-hydroxy-3′-iso-propylphenyl)sulfanyl]phenoxy]methylphosphonate]: the Ki stood at 108 nM in test [1] (SPA data, read-out: Ki TRβ) and 363 nM in test [2] (SPA data, read-out: Ki TRα).
In the case of `CC(C)c1cc(Cc2c(Cl)cc(OCP(=O)(O)O)cc2Cl)ccc1O` [Compound 7-5, [3,5-dichloro-4-(4′-hydroxy-3′-iso-propylbenzyl)phenoxy]methylphosphonic acid], the Ki amounted to 9.5 nM in test [1] (SPA data, read-out: Ki TRβ) and 67 nM in test [2] (SPA data, read-out: Ki TRα).
For `CC(C)c1cc(Oc2c(Cl)cc(C(=O)CP(=O)(O)O)cc2Cl)ccc1O` [Compound 21, 2-[3,5-dichloro-4-(4′-hydroxy-3′-iso-propylphenoxy)phenyl]-2-oxoethylphosphonic acid], in that order: > 180 nM and > 1400 nM.
On the same counts, the results for `Cc1cc(OCP(=O)(O)O)cc(C)c1Cc1ccc(O)c(C(=O)c2ccc(F)cc2)c1` [Compound 39, [3,5-dimethyl-4-[3′-(4-fluoro-benzoyl)-4′-hydroxy-benzyl]phenoxy]methylphosphonic acid] are 58 nM and > 2000 nM.
Turning to `CC(C)c1cc(Cc2c(Cl)cc(C(=O)CP(=O)(O)O)cc2Cl)ccc1F` [Compound 41-3, 2-[3,5-dichloro-4-(4-fluoro-iso-propyl-benzyl)-phenyl]-2-oxo-ethylphosphonic acid], the Ki in test [1] (SPA data, read-out: Ki TRβ) is 280 nM; in test [2] (SPA data, read-out: Ki TRα), > 2000 nM.
For `Cc1cc(Cc2c(C)cc(OCP(=O)(O)O)cc2C)ccc1O` [Compound 7-7, [3,5-dimethyl-4-[4′-hydroxy-3′-methylbenzyl]phenoxy]methylphosphonic acid], in that order: 90 nM and 898 nM.
On the same counts, the results for `Cc1cc(OCP(=O)(O)O)cc(C)c1Cc1ccc(O)c(S(=O)(=O)C(C)C)c1` [Compound 44, [3,5-dimethyl-4-[4′-hydroxy-3′-(iso-propylsulfonyl)benzyl]phenoxy]methylphosphonic acid] are 44 nM and 832 nM.
For `Cc1cc(OCP(=O)(O)O)cc(C)c1C(=O)c1ccc(O)c(C(C)C)c1` [Compound 25, [3,5-dimethyl-4-(3′-iso-propyl-4′-hydroxybenzoyl)phenoxy]methylphosphonic acid], the results for the Ki in test [1] and in test [2] were 363 nM and > 2000 nM, respectively.
In the case of `Cc1cc(OC[P@]2(=O)OCC[C@@H](c3cccc(F)c3)O2)cc(C)c1Cc1ccc(O)c(C(C)C)c1` [Compound 13-3-trans], the Ki amounted to 2460 nM in test [1] (SPA data, read-out: Ki TRβ) and 2010 nM in test [2] (SPA data, read-out: Ki TRα).
On the same counts, the results for `Cc1cc(CC(=O)CP(=O)(O)O)cc(C)c1Oc1ccc(O)c(C(C)C)c1` [Compound 32, 3-[3,5-dimethyl-4-(4′-hydroxy-3′-iso-propylphenoxy)]phenyl-2-oxopropylphosphonic acid] are 96 nM and 284 nM.
For `Cc1cc(C(=O)CP(=O)(O)O)cc(C)c1Cc1ccc(O)c(Cc2ccccc2)c1` [Compound 41, [3,5-dimethyl-4-[3′-benzyl-4′-hydroxy-benzyl]benzoyl]methylphosphonic acid], in that order: 181 nM and > 2000 nM.
For `CCc1cc(Cc2c(C)cc(CCP(=O)(O)O)cc2C)ccc1O` [Compound 24-4, 2-[3,5-dimethyl-4-(3′-Ethyl-4′-hydroxy-benzyl)phenyl]ethylphosphonic acid], the Ki in test [1] (SPA data, read-out: Ki TRβ) was 92 nM; in test [2] (SPA data, read-out: Ki TRα), > 2000 nM.
On the same counts, the results for `Cc1cc(OC[P@]2(=O)OCC[C@@H](c3ccncc3)O2)cc(C)c1Cc1ccc(O)c(C(C)C)c1` [Compound 13-5-trans, 2-[(3,5-dimethyl-4-(4′-hydroxy-3′-iso-propylbenzyl)phenoxy)methyl]-4-(pyrid-4-yl)-2-oxo-2λ^5-[1,3,2]-dioxaphosphonane] are 281 nM and 354 nM.
For `O=P(O)(O)Cc1cc(Cl)c(Oc2ccc(O)c(S(=O)(=O)N3CCCCC3)c2)c(Cl)c1` [Compound 9, 3,5-dichloro-4-[4′-hydroxy-3′-(N-piperidinylsulfonamido)phenoxy]benzylphosphonic acid], in that order: 204 nM and 350 nM.
For `Cc1cc(OC[P@]2(=O)OCC[C@@H](c3cccc(Cl)c3)O2)cc(C)c1Cc1ccc(O)c(C(C)C)c1` [Compound 13-1-trans, (S)-2-[(3,5-dimethyl-4-(4′-hydroxy-3′-iso-propylbenzyl)phenoxy)methyl]-4-(3-chlorophenyl)-2-oxo-2λ^5-[1,3,2]-dioxaphosphonane], in that order: 1320 nM and 1740 nM.
`Cc1cc(OC[P@]2(=O)OCC[C@@H](c3cccc(Br)c3)O2)cc(C)c1Cc1ccc(O)c(C(C)C)c1` [Compound 13-2-trans, 2-[(3,5-dimethyl-4-(4′-hydroxy-3′-iso-propylbenzyl)phenoxy)methyl]-4-(3-bromophenyl)-2-oxo-2λ^5-[1,3,2]-diox aphosphonane]: the Ki in test [1] (SPA data, read-out: Ki TRβ) is 469 nM; in test [2] (SPA data, read-out: Ki TRα) it was 1350 nM.

(Values after patent publication US20090028925A1, “Novel Phosphinic Acid-Containing Thyromimetics” (priority 2005, published 2009).)
